Test system: patients suffering from MCI
Experiment: InDDEx (ENA713B IA07) clinical trial: conversion from MCI to AD
Format: in vivo, human
Text: Introduction and summary. The purpose of this EXAMPLE is to describe genetic association studies identifying twenty-five (25) AD-associated mutations of the invention. Genome-wide analyses for genetic association studies have only become possible within the past two years. The Investigation Into Delay to Diagnosis of Alzheimer's Disease With Exelon (InDDex; ENA713B IA07) clinical trial followed patients suffering from MCI and given either Exelon (rivastigmine) at various doses or placebo and followed their conversion to AD.

SMILES: CCN(C)C(=O)Oc1cccc([C@H](C)N(C)C)c1 [Exelon, rivastigmine]
- Converted to AD, % (All patients (enrolled in and completed the clinical study), Exelon arm n = 508): 17.32%
- Converted to AD, % (Genome scan population (consented for pharmacogenetic study and passed the 100K scan), Exelon arm n = 211): 17.06%

Reference: patent publication US20100249107A1, “Biomarkers for Alzheimer's Disease Progression” (priority 2006, published 2010)
